These results are taken from patent US4356183A, “Antihypertensive 4-thiazolidinecarboxylic acids (pyridyl derivatives)” (Santen Pharmaceutical Co., Ltd., priority 1978, dated 1982).

In experiment [1] the test system is contractile response of isolated guinea pig ileum to angiotensin I. Description: Inhibition of contractile response of isolated guinea pig ileum to angiotensin I. To be noted: Cavia porcellus, angiotensin I 0.1 μg/ml; compound added 5 min before; 30° C.; read-out: Angiotensin I IC50 (50% inhibition of angiotensin I activity inducing the contraction of guinea pig ileum). The class given is cell-based.

Experiment [2] deals with contractile response to bradykinin (isolated guinea pig ileum). Description: Augmentation of contractile response of isolated guinea pig ileum to bradykinin. The class given is cell-based. To be noted: Cavia porcellus, bradykinin 0.005 μg/ml; compound added 5 min before; 30° C.; read-out: Bradykinin AC50 (50% augmentation of bradykinin activity inducing the contraction of guinea pig ileum).

Experiment [3] has as its system pressor response to angiotensin I. Description: Inhibition of pressor response to angiotensin I in rats after oral administration. It is filed as in vivo, rat (male Wistar). To be noted: angiotensin I 300 ng/kg i.v.; for Inhibition (%) of pressor response to angiotensin I, 5 min / Inhibition (%) of pressor response to angiotensin I, 15 min / Inhibition (%) of pressor response to angiotensin I, 25 min / Inhibition (%) of pressor response to angiotensin I, 35 min / Inhibition (%) of pressor response to angiotensin I, 45 min / Inhibition (%) of pressor response to angiotensin I, 55 min / Inhibition (%) of pressor response to angiotensin I, 65 min / Inhibition (%) of pressor response to angiotensin I, 75 min / Inhibition (%) of pressor response to angiotensin I, 85 min: dose: 3, 45, 49 1.8 mg/kg, 4, 46 1.3, 50 1.4, 76 2.0, 77 1.5; for Inhibition (%) of pressor response to angiotensin I, 95 min: dose: 45, 49 1.8 mg/kg, 4, 46 1.3, 50 1.4, 76 2.0, 77 1.5; for Inhibition (%) of pressor response to angiotensin I, 105 min / Inhibition (%) of pressor response to angiotensin I, 115 min: dose: 45, 49 1.8 mg/kg, 46 1.3, 50 1.4, 76 2.0, 77 1.5. The procedure: Male Wistar strain rats weighing about 200-300 g were used.
Under ether anesthesia, polyethylene cannulae are inserted into carotid arthery and jugular vein. The cannula to carotid artery is connected to an electric transducer, while the cannula to jugular vein is connected to an apparatus for continuous infusion. After the complete recovery from anesthesia, angiotensin I is infused intravenously in a dose of 300 ng/kg by the apparatus for continuous infusion, and the pressor response is recorded by polygraph (Nihon Koden, RM-150).
The compounds of this invention suspended in 0.5% tragacanth solution are administered orally in a dose of 0.3 ml per 100 g of body weight, and the pressor response to angiotensin I infused intravenously is measured with time.
The inhibitory activity of the compounds against angiotensin I-converting enzyme is expressed as the percent inhibition of pressor response to angiotensin I.

Take `C[C@H](CS)C(=O)N1C(c2ccccc2O)SC[C@H]1C(=O)O` (stereo partly shown) [Compound 50]: the concentration for half-maximal inhibition (IC50) in experiment [1] was determined as 0.056 µM. Further, the AC50 in experiment [2] is 0.0007 µM. Also, in experiment [3], the “Inhibition (%) of pressor response to angiotensin I, 5 min” value is 11.1%; the “Inhibition (%) of pressor response to angiotensin I, 15 min” value is listed as 22.7%; the “Inhibition (%) of pressor response to angiotensin I, 25 min” value came out at 37.6%; the “Inhibition (%) of pressor response to angiotensin I, 35 min” value is on record as 43.9%. In experiment [3], the “Inhibition (%) of pressor response to angiotensin I, 45 min” value was found to be 52.6%; the “Inhibition (%) of pressor response to angiotensin I, 55 min” value is 31.7%; the “Inhibition (%) of pressor response to angiotensin I, 65 min” value amounted to 28.1%; the “Inhibition (%) of pressor response to angiotensin I, 75 min” value came out at 30.5%. In experiment [3], the “Inhibition (%) of pressor response to angiotensin I, 85 min” value is 24.3%; the “Inhibition (%) of pressor response to angiotensin I, 95 min” value is 21.1%; the “Inhibition (%) of pressor response to angiotensin I, 105 min” value turned out to be 21.7%; the “Inhibition (%) of pressor response to angiotensin I, 115 min” value was found to be 21.5%.

`COc1ccc(C2SC[C@@H](C(=O)O)N2C(=O)[C@H](C)CS)c(O)c1` (stereo partly shown) [Compound 77]: the IC50 in experiment [1] turned out to be 0.12 µM. Further, in experiment [2], the AC50 was determined as 0.0013 µM. For the same compound, in experiment [3], the “Inhibition (%) of pressor response to angiotensin I, 5 min” value is reported as 35.0%; the “Inhibition (%) of pressor response to angiotensin I, 15 min” value amounted to 45.0%; the “Inhibition (%) of pressor response to angiotensin I, 25 min” value is given as 54.2%; the “Inhibition (%) of pressor response to angiotensin I, 35 min” value came to 50.8%. Besides, in experiment [3], the “Inhibition (%) of pressor response to angiotensin I, 45 min” value worked out at 57.2%; the “Inhibition (%) of pressor response to angiotensin I, 55 min” value is 49.2%; the “Inhibition (%) of pressor response to angiotensin I, 65 min” value stood at 47.8%; the “Inhibition (%) of pressor response to angiotensin I, 75 min” value is given as 34.8%. For the same compound, in experiment [3], the “Inhibition (%) of pressor response to angiotensin I, 85 min” value came out at 31.7%; the “Inhibition (%) of pressor response to angiotensin I, 95 min” value was 24.2%; the “Inhibition (%) of pressor response to angiotensin I, 105 min” value is recorded as 18.7%; the “Inhibition (%) of pressor response to angiotensin I, 115 min” value is recorded as 6.7%.
